Tests used:
[1] = target: T1, GPX4 (Homo sapiens, UniProt P36969); assay: Ubiquitination assay of GPX4 in HT1080 cells; type: cell-based; design: determine the changes in the endogenous levels of GPX4 by western blot assay; endogenous in cells; host or cells: HT1080 fibrosarcoma cells, including siRNA-knockdown derivatives; details: 1 µM, 12 h
T1 sequence (P36969 1-170 isoform P36969-2): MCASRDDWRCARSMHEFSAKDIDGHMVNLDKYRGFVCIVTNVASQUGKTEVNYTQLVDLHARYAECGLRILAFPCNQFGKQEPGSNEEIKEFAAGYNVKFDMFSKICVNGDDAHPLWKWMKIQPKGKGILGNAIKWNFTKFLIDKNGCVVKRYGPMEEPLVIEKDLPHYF
Description: HT1080 cells were seeded in 15 cm culture dishes and allowed to adhere overnight. Then, the cells were treated with either 1 µM GDAz‐3 or an equivalent volume of DMSO for 12 h. Next, the proteasome inhibitor MG‐132 (5 µM) was added, and the cells were further incubated for 6 h. Once the incubation was completed, the cells were harvested and subjected to lysis using an IP lysis solution (#P0013J, Beyotime, Shanghai, China) to extract proteins. Then, the cell lysates were incubated with the GPX4 antibody (Proteintech, #67763‐1‐Ig, 1:100) overnight at 4 °C. Subsequently, protein A/G‐magnetic beads (#P2179, Beyotime, Shanghai, China) were added, and the mixture was incubated at 4 °C for 2 h on a rotator. After incubation, the beads were washed four times with immunoprecipitation buffer and then boiled in 1× loading buffer. The protein samples were then subjected to SDS‐PAGE analysis to evaluate the interactions between the target proteins. Finally, western blotting was used to detect proteins of interest in the co‐immunoprecipitation products. The ubiquitin assay was carried out under denaturing conditions.

[2] = target: T1, GPX4; assay: GPX4 and 4-HNE in HT1080 xenograft tumor tissue (IHC, western blot); type: in vivo, nude mice; design: from tissue; host or cells: HT1080 xenograft tumour tissue from BALB/c nude mice
Excerpt: In addition, the tumor samples from the six treatment groups were randomly collected and probed for the levels of GPX4, and 4‐HNE (4‐hydroxynonenal, a lipid peroxidation marker) by immunohistochemistry (IHC) staining (Figure 7G). […] Collectively, the HSP70‐PROTAC GDAz‐3 has been confirmed as an effective ferroptosis‐inducing agent, which can degrade GPX4 both in vitro and in vivo via UPS and CMA dual processes.
The experimental procedures of the animal experiments were permitted by the Hangzhou Institute of Medicine (HIM), Chinese Academy of Sciences (AP2024‐07‐0010). Male BALB/c nude mice (6 weeks old) were housed under pathogen‐free conditions, maintained at a constant room temperature, and fed standard rodent chow and water. An HT1080 fibrosarcoma xenograft model in nude mice was established through subcutaneous transplantation. When the tumors emerged, the mice were randomly divided into six groups with six mice in each group: […], including the vehicle group, and each of the two inhibitor‐treated groups (ML162 and apoptozole) at 30 mg kg^−1, and their combinations. […] Body weight and tumor size were measured every other day, and the tumor volume and body weight were recorded every other day after drug treatment. After treatment, the animals were euthanized by cervical dislocation, and the tumor bulks were peeled off and weighed. The organ tissues (tumor, heart, liver, spleen, lung, and kidney) were harvested and fixed with 4% paraformaldehyde for hematoxylin‐eosin (H&E) and immunohistochemistry (IHC) staining. In addition, the expression of GPX4 in tumor samples was analyzed in vehicle‐ and GDAz‐3‐treated groups by western blot assay.

[3] = target: T1, GPX4; assay: GPX4 degradation by western blot in 786-O cells; type: cell-based; design: endogenous in cells; host or cells: 786-O; details: 24 h
Excerpt: As previously mentioned, drug resistance and limited application scope are the significant challenges of traditional PROTAC, due partly to CRBN/VHL mutations or low expression. In this study, we investigated whether the developed HSP70‐PROTAC could address these challenges. Specifically, we examined the developed HSP70‐PROTAC in scenarios where VHL‐ or CRBN‐based PROTACs are ineffective due to intrinsic or acquired resistance. Several previously reported representative GPX4‐targeting degraders, including dGPX4 (CRBN‐based PROTAC, Figure 1A), 8e (VHL‐based PROTAC, Figure 1B), and GDCNF‐11/2 (HSP90‐based HIM‐PROTAC, Figure 1C, the structure of the GDCNF‐11 derivative GDCNF‐2 was not shown) were selected as control agents.^[ [18], [23], [28] ^] […] The clear cell renal cell carcinoma (ccRCC) 786‐O cell line is a well‐established cancer cell model characterized by an intrinsic deficiency in VHL expression.^[ [43], [44], [45] ^] We also confirmed this characteristic through evaluating the VHL expression levels in several randomly selected cancer cell lines (Figure S10A, Supporting Information). We further selected 786‐O cells as a model to confirm whether HSP70‐PROTAC could be used in such cases as an alternative to VHL‐based degraders, because VHL‐based PROTACs cannot be used to treat kidney cancer with a mutation or deletion in the VHL gene.
Cells were seeded at a density of 4 × 10^5 cells well^−1 in 6‐well plates and allowed to incubate overnight. Cells were incubated with the indicated treatments. Thereafter, the cells were collected and lysed with RIPA buffer containing serine protease and phosphatase inhibitors for 30 min on ice. Proteins were quantified by using a BCA protein assay kit (Beyotime). Subsequently, SDS‐PAGE sample loading buffer was added, and the mixture was heated in a 100 °C metal bath for 10 min to denature the proteins. Protein samples from each group were separated by SDS‐PAGE gel and transferred to a PVDF membrane. After blocking with 5% skim milk for 1 h at room temperature, primary antibodies (GPX4: abcam (#ab125066, 1:1000); Hsp70: abcam (#ab2787, 1:1000); CHIP: HUABIO (#ST7108, 1:1000); UpingBio Technology Co., Ltd. (BRD4, #YP‐Ab‐18034, 1:1000; BAG‐1, #YP‐Ab‐00575, 1:1000); GAPDH: Proteintech (#60004‐1‐Ig, 1:50 000)) were used and incubated at 4 °C overnight on a rotary shaker. After washing the membranes with TBST buffer five times, the membranes were incubated with a second antibody (Cell Signaling Technology, #7074S, 1:1000 and #7076S, 1:1000) at room temperature for 2 h. Ultimately, the membrane was washed five times, and the antibody‐protein complexes were visualized using an ECL luminescence reagent (Biosharp, Shanghai, China). The relative intensities of the bands were analyzed by ImageJ and normalized to a loading control.

[4] = 30 and 60 mg/kg, vs vehicle group

**Q.** With `COc1ccc(-c2nc(-c3cc(C(F)(F)F)cc(C(F)(F)F)c3)n(Cc3ccc(C(=O)NCCOCCOCCOCCn4cc(COc5ccc(N(C(=O)CCl)C(C(=O)NCCc6ccccc6)c6cccs6)cc5Cl)nn4)cc3)c2-c2ccc(OC)cc2)cc1` (centres unmarked) [GDAz-3, 4-((2-(3,5-bis(trifluoromethyl)phenyl)-4,5-bis(4-methoxyphenyl)-1H-imidazol-1-yl)methyl)-N-(2-(2-(2-(2-(4-((2-chloro-4-(2-chloro-N-(2-oxo-2-(phenethylamino)-1-(thiophen-2-yl)ethyl)acetamido)phenoxy)methyl)-1H-1,2,3-triazol-1-yl)ethoxy)ethoxy)ethoxy)ethyl)benzamide] as the molecule, how does the “Ubiquitination of GPX4” value [1] read?
**A.** obviously increase the ubiquitination of GPX4

**Q.** And the “4-HNE levels in tumor (IHC)” value [2, 4]?
**A.** increase in 4‐HNE levels

**Q.** And the “GPX4 levels in tumor (IHC)” value [2, 4]?
**A.** reduction in GPX4 levels

**Q.** What about the “GPX4 protein in HT1080 tumor tissue (western blot)” value ([2]; single IP injection 50 mg/kg) of the same molecule?
**A.** reduce the level of GPX4 protein over the vehicle control at the 12, 24, and 36 h time points

**Q.** What about the “GPX4 degradation in 786-O cells” value ([3]; 0.5 µM) of the same molecule?
**A.** obvious GPX4 degradation

**Q.** And the remaining activity at 0.1 µM ([3]; 786-0, 786-O cell line, 0.1 µM, read-out: GPX4 % of control)?
**A.** 89%

**Q.** And the remaining activity at 0.5 µM ([3]; 786-0, 786-O cell line, 0.5 µM, read-out: GPX4 % of control)?
**A.** 54%

**Q.** What about the remaining activity at 1 µM ([3]; 786-0, 786-O cell line, 1 µM, read-out: GPX4 % of control) of the same molecule?
**A.** 33%
